Results reported in ChEMBL document CHEMBL1201862, “PubChem BioAssay data set” (2004).
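1) Cells in 96-well plates. 2) Compound, 48 h, 5 concentrations. 3) Linear interpolation between surrounding doses. 4) Unreached endpoint = highest concentration. GI50 marks 50% less growth.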 The source made the active and inactive calls. Rule as the data show it: active = GI50 up to about 1.1 µM and inactive = higher.

What was measured:
Test in all cases: growth of human tumour cells (NCI), 48 h
786-0 = test system: 786-0
KM12 = test system: KM12
SNB-75 = test system: SNB-75
SK-OV-3 = test system: SK-OV-3
UO-31 = test system: UO-31
TK-10 = test system: TK-10
SK-MEL-28 = test system: SK-MEL-28
LOX IMVI = test system: LOX IMVI
NCI/ADR-RES = test system: NCI/ADR-RES
OVCAR-4 = test system: OVCAR-4
MDA-N = test system: MDA-N
SF-295 = test system: SF-295
HOP-62 = test system: HOP-62
HCC 2998 = test system: HCC 2998
A498 = test system: A498
OVCAR-8 = test system: OVCAR-8
NCI-H23 = test system: NCI-H23
NCI-H460 = test system: NCI-H460
U-251 = test system: U-251
SNB-19 = test system: SNB-19
RPMI-8226 = test system: RPMI-8226
OVCAR-3 = test system: OVCAR-3
MOLT-4 = test system: MOLT-4
SK-MEL-5 = test system: SK-MEL-5
SN12C = test system: SN12C
SK-MEL-2 = test system: SK-MEL-2
M14 = test system: M14
UACC-257 = test system: UACC-257
Malme-3M = test system: Malme-3M
COLO 205 = test system: COLO 205
SF-268 = test system: SF-268
SF-539 = test system: SF-539
A549 = test system: A549
MDA-MB-435 = test system: MDA-MB-435
EKVX = test system: EKVX
CAKI-1 = test system: CAKI-1
MDA-MB-231 = test system: MDA-MB-231
UACC-62 = test system: UACC-62
HCT-116 = test system: HCT-116
HCT-15 = test system: HCT-15
MCF7 = test system: MCF7
NCI-H226 = test system: NCI-H226
Hs-578T = test system: Hs-578T
PC-3 = test system: PC-3
HOP-92 = test system: HOP-92
CCRF-CEM = test system: CCRF-CEM
SR = test system: SR
HL-60 = test system: HL-60
RXF 393 = test system: RXF 393
ACHN = test system: ACHN
BT-549 = test system: BT-549
K562 = test system: K562
T47D = test system: T47D
NCI-H522 = test system: NCI-H522
IGROV-1 = test system: IGROV-1
HT-29 = test system: HT-29
OVCAR-5 = test system: OVCAR-5
SW-620 = test system: SW-620
DU-145 = test system: DU-145

## NC(=O)NC(=O)c1cccc(NC(=O)CF)c1
786-0
  GI50: > 100 µM (inactive)
KM12
  GI50: > 100 µM (inactive)
SNB-75
  GI50: > 100 µM (inactive)
SK-OV-3
  GI50: > 100 µM (inactive)
UO-31
  GI50: 31 µM (inactive)
TK-10
  GI50: > 100 µM (inactive)
SK-MEL-28
  GI50: > 100 µM (inactive)
LOX IMVI
  GI50: > 100 µM (inactive)
NCI/ADR-RES
  GI50: > 100 µM (inactive)
OVCAR-4
  GI50: > 100 µM (inactive)
MDA-N
  GI50: > 100 µM (inactive)
SF-295
  GI50: > 100 µM (inactive)
HOP-62
  GI50: > 100 µM (inactive)
HCC 2998
  GI50: > 100 µM (inactive)
A498
  GI50: > 100 µM (inactive)
OVCAR-8
  GI50: > 100 µM (inactive)
NCI-H23
  GI50: > 100 µM (inactive)
NCI-H460
  GI50: > 100 µM (inactive)
U-251
  GI50: > 100 µM (inactive)
SNB-19
  GI50: > 100 µM (inactive)
RPMI-8226
  GI50: > 100 µM (inactive)
OVCAR-3
  GI50: > 100 µM (inactive)
MOLT-4
  GI50: > 100 µM (inactive)
SK-MEL-5
  GI50: > 100 µM (inactive)
SN12C
  GI50: > 100 µM (inactive)
SK-MEL-2
  GI50: > 100 µM (inactive)
M14
  GI50: 41.4 µM (inactive)
UACC-257
  GI50: > 100 µM (inactive)
Malme-3M
  GI50: > 100 µM (inactive)
COLO 205
  GI50: > 100 µM (inactive)
SF-268
  GI50: > 100 µM (inactive)
SF-539
  GI50: > 100 µM (inactive)
A549
  GI50: > 100 µM (inactive)
MDA-MB-435
  GI50: > 100 µM (inactive)
EKVX
  GI50: > 100 µM (inactive)
CAKI-1
  GI50: > 100 µM (inactive)
MDA-MB-231
  GI50: > 100 µM (inactive)
UACC-62
  GI50: > 100 µM (inactive)
HCT-116
  GI50: > 100 µM (inactive)
HCT-15
  GI50: > 100 µM
MCF7
  GI50: > 100 µM (inactive)
NCI-H226
  GI50: 73.5 µM (inactive)
Hs-578T
  GI50: > 100 µM (inactive)
PC-3
  GI50: > 100 µM (inactive)
HOP-92
  GI50: > 100 µM (inactive)
CCRF-CEM
  GI50: > 100 µM (inactive)
SR
  GI50: > 100 µM (inactive)
HL-60
  GI50: > 100 µM (inactive)
RXF 393
  GI50: > 100 µM (inactive)
ACHN
  GI50: > 100 µM (inactive)
BT-549
  GI50: > 100 µM (inactive)
K562
  GI50: > 100 µM (inactive)
T47D
  GI50: > 100 µM (inactive)
NCI-H522
  GI50: > 100 µM (inactive)
IGROV-1
  GI50: > 100 µM (inactive)
HT-29
  GI50: > 100 µM (inactive)
OVCAR-5
  GI50: > 100 µM (inactive)
SW-620
  GI50: > 100 µM (inactive)
DU-145
  GI50: > 100 µM (inactive)
